Measured values: ChEMBL document CHEMBL3044664, “Synthesis of coumarin-based 1,3,4-oxadiazol-2ylthio-N-phenyl/benzothiazolyl acetamides as antimicrobial and antituberculosis agents” (2013)
Values after ≈ are worked out from the molar mass of the structure shown.

Experiments:
Assay type in all cases: functional
Candida albicans = assay: Antifungal activity against Candida albicans MTCC 183 assessed as growth inhibition by agar streak dilution method
Aspergillus clavatus = assay: Antifungal activity against Aspergillus clavatus MTCC 1323 assessed as growth inhibition by agar streak dilution method
Aspergillus fumigatus = assay: Antifungal activity against Aspergillus fumigatus MTCC 343 assessed as growth inhibition by agar streak dilution method
Aspergillus niger = assay: Antifungal activity against Aspergillus niger MTCC 282 assessed as growth inhibition by agar streak dilution method
Shigella flexneri = assay: Antibacterial activity against Shigella flexneri MTCC 1457 assessed as growth inhibition by agar streak dilution method
Proteus vulgaris = assay: Antibacterial activity against Proteus vulgaris MTCC 1771 assessed as growth inhibition by agar streak dilution method
Salmonella typhi = assay: Antibacterial activity against Salmonella enterica subsp. enterica serovar Typhi MTCC 733 assessed as growth inhibition by agar streak dilution method
Klebsiella pneumoniae = assay: Antibacterial activity against Klebsiella pneumoniae MTCC 109 assessed as growth inhibition by agar streak dilution method
Pseudomonas aeruginosa = assay: Antibacterial activity against Pseudomonas aeruginosa MTCC 741 assessed as growth inhibition by agar streak dilution method
Escherichia coli = assay: Antibacterial activity against Escherichia coli MTCC 739 assessed as growth inhibition by agar streak dilution method
Bacillus cereus = assay: Antibacterial activity against Bacillus cereus MTCC 430 assessed as growth inhibition by agar streak dilution method
Staphylococcus aureus = assay: Antibacterial activity against Staphylococcus aureus MTCC 96 assessed as growth inhibition by agar streak dilution method
[1] = tested on: Mycobacterium tuberculosis; assay: Antitubercular activity against Mycobacterium tuberculosis H37Rv assessed as growth inhibition at MIC by Lowenstein-Jensen method
[2] = tested on: Mycobacterium tuberculosis; assay: Antitubercular activity against Mycobacterium tuberculosis H37Rv assessed as growth inhibition by Lowenstein-Jensen method
[3] = tested on: Mycobacterium tuberculosis; assay: Antitubercular activity against Mycobacterium tuberculosis H37Rv assessed as growth inhibition by BACTEC MGIT method

Row | Compound | MIC (Candida albicans) | MIC (Aspergillus clavatus) | MIC (Aspergillus fumigatus) | MIC (Aspergillus niger) | MIC (Shigella flexneri) | MIC (Proteus vulgaris) | MIC (Salmonella typhi) | MIC (Klebsiella pneumoniae) | MIC (Pseudomonas aeruginosa) | MIC (Escherichia coli) | MIC (Bacillus cereus) | MIC (Staphylococcus aureus) | growth inhibition (GI) [1] | MIC [2] | MIC [3]
1 | Cc1ccc(NC(=O)CSc2nnc(-c3cc4ccccc4oc3=O)o2)cc1 | > 100 µg/mL | 100 µg/mL (≈ 254 µM) | > 100 µg/mL | 100 µg/mL (≈ 254 µM) | > 100 µg/mL | > 100 µg/mL | 100 µg/mL (≈ 254 µM) | > 100 µg/mL | > 100 µg/mL | > 100 µg/mL | 50 µg/mL (≈ 127 µM) | 100 µg/mL (≈ 254 µM) | 94% | 500 µg/mL (≈ 1270 µM) | > 6.25 µg/mL
2 | COc1ccc(NC(=O)CSc2nnc(-c3cc4ccccc4oc3=O)o2)cc1 | 100 µg/mL (≈ 244 µM) | 50 µg/mL (≈ 122 µM) | 100 µg/mL (≈ 244 µM) | 100 µg/mL (≈ 244 µM) | 100 µg/mL (≈ 244 µM) | 100 µg/mL (≈ 244 µM) | 25 µg/mL (≈ 61.1 µM) | 100 µg/mL (≈ 244 µM) | 25 µg/mL (≈ 61.1 µM) | 50 µg/mL (≈ 122 µM) | 100 µg/mL (≈ 244 µM) | 6.25 µg/mL (≈ 15.3 µM) | 97% | 50 µg/mL (≈ 122 µM) | > 6.25 µg/mL
3 | CCOc1ccc(NC(=O)CSc2nnc(-c3cc4ccccc4oc3=O)o2)cc1 | 50 µg/mL (≈ 118 µM) | 100 µg/mL (≈ 236 µM) | 100 µg/mL (≈ 236 µM) | 100 µg/mL (≈ 236 µM) | 100 µg/mL (≈ 236 µM) | 100 µg/mL (≈ 236 µM) | 50 µg/mL (≈ 118 µM) | 100 µg/mL (≈ 236 µM) | 6.25 µg/mL (≈ 14.8 µM) | 50 µg/mL (≈ 118 µM) | 100 µg/mL (≈ 236 µM) | 25 µg/mL (≈ 59 µM) | 98% | 25 µg/mL (≈ 59 µM) | > 6.25 µg/mL
4 | CC(=O)Nc1ccc(NC(=O)CSc2nnc(-c3cc4ccccc4oc3=O)o2)cc1 | 100 µg/mL (≈ 229 µM) | 50 µg/mL (≈ 115 µM) | > 100 µg/mL | > 100 µg/mL | > 100 µg/mL | > 100 µg/mL | > 100 µg/mL | > 100 µg/mL | 50 µg/mL (≈ 115 µM) | > 100 µg/mL | 100 µg/mL (≈ 229 µM) | 50 µg/mL (≈ 115 µM) | 95% | 250 µg/mL (≈ 573 µM) | > 6.25 µg/mL
5 | O=C(CSc1nnc(-c2cc3ccccc3oc2=O)o1)Nc1nc2ccccc2s1 | > 100 µg/mL | > 100 µg/mL | > 100 µg/mL | > 100 µg/mL | 100 µg/mL (≈ 229 µM) | 100 µg/mL (≈ 229 µM) | 100 µg/mL (≈ 229 µM) | > 100 µg/mL | 50 µg/mL (≈ 115 µM) | > 100 µg/mL | 100 µg/mL (≈ 229 µM) | 100 µg/mL (≈ 229 µM) | 95% | 500 µg/mL (≈ 1150 µM) | > 6.25 µg/mL
6 | O=C(CSc1nnc(-c2cc3ccccc3oc2=O)o1)Nc1nc2ccc(Cl)cc2s1 | 100 µg/mL (≈ 212 µM) | 100 µg/mL (≈ 212 µM) | 25 µg/mL (≈ 53.1 µM) | 12.5 µg/mL (≈ 26.5 µM) | 25 µg/mL (≈ 53.1 µM) | 50 µg/mL (≈ 106 µM) | 50 µg/mL (≈ 106 µM) | 100 µg/mL (≈ 212 µM) | 100 µg/mL (≈ 212 µM) | 50 µg/mL (≈ 106 µM) | 6.25 µg/mL (≈ 13.3 µM) | 50 µg/mL (≈ 106 µM) | 96% | 62.5 µg/mL (≈ 133 µM) | > 6.25 µg/mL
7 | O=C(CSc1nnc(-c2cc3ccccc3oc2=O)o1)Nc1nc2ccc(Br)cc2s1 | 50 µg/mL (≈ 97 µM) | 100 µg/mL (≈ 194 µM) | 100 µg/mL (≈ 194 µM) | 25 µg/mL (≈ 48.5 µM) | 50 µg/mL (≈ 97 µM) | 50 µg/mL (≈ 97 µM) | 100 µg/mL (≈ 194 µM) | 100 µg/mL (≈ 194 µM) | 100 µg/mL (≈ 194 µM) | 50 µg/mL (≈ 97 µM) | 3.12 µg/mL (≈ 6.05 µM) | 25 µg/mL (≈ 48.5 µM) | 99% | 12.5 µg/mL (≈ 24.3 µM) | > 6.25 µg/mL
8 | O=C(CSc1nnc(-c2cc3ccccc3oc2=O)o1)Nc1nc2ccc(F)cc2s1 | 50 µg/mL (≈ 110 µM) | 50 µg/mL (≈ 110 µM) | 25 µg/mL (≈ 55 µM) | 12.5 µg/mL (≈ 27.5 µM) | 25 µg/mL (≈ 55 µM) | 100 µg/mL (≈ 220 µM) | 50 µg/mL (≈ 110 µM) | 100 µg/mL (≈ 220 µM) | 50 µg/mL (≈ 110 µM) | 50 µg/mL (≈ 110 µM) | 12.5 µg/mL (≈ 27.5 µM) | 12.5 µg/mL (≈ 27.5 µM) | 98% | 50 µg/mL (≈ 110 µM) | > 6.25 µg/mL
